Data on three compounds can be found in US7612087B2, “Heterocyclic compounds as inhibitors of beta-lactamases” (Novexel, priority 2002, dated 2009).

The subject of one test is E. coli 250CF1 (Tem3). The test is described as follows: microbe, parasite or virus in culture. Format: cell-based. To be noted: 24 hours at 37° C.; for MIC: Escherichia coli. Here is the method: (§1) The operation is carried out as follows, using the so-called micro-dilution in liquid medium method.
(§2) A series of concentrations of the β-lactamine is prepared in the presence of a constant concentration (5 mg/l) of the product to be studied, each is then seeded with various bacterial strains.
(§3) After incubation for 24 hours in a heating chamber at 37° C., the growth inhibition is evaluated by the absence of any bacterial development, which allows the minimal inhibitory concentrations (MIC) for each strain to be determined, expressed in milligrams/l.

A further test concerns the target T1, β-lactamase TEM1 (Escherichia coli, UniProt P62593).
T1 construct: The β-lactamases are isolated from bacterial strains which are resistant to penicillins and cephalosporins; endogenous in cells; host or cells: E. coli 250HT21 (natural producer; French-press lysate, 100,000 g supernatant)
The test is described as follows: Inhibition of isolated β-lactamase Tem-1 (Nitrocefin hydrolysis). Conditions: 100 μM Nitrocefin, 50 mM sodium phosphate buffer pH7.0, 37° C. Format: biochemical, E.coli 250HT21. The protocol: (§4) A. Preparation of the β-lactamases Tem-1 and P99
(§5) The β-lactamases are isolated from bacterial strains which are resistant to penicillins and cephalosporins (Tem1 and P99 are produced by E.coli 250HT21 and E.Cloacae 293HT6 respectively).
(§6) The bacteria are cultured at 37° C. in heart-brain culture at 37 g/l (DIFCO). They are harvested at the end of the exponential phase, cooled down and centrifuged. The bacterial pellets are taken up in sodium phosphate buffer 50 mM, pH 7.0 and centrifuged again. The bacteria are taken up in two volumes of the same buffer and lyzed using a French-Press maintained at 4° C. After centrifugation for 1 hour at 100,000 g, at 4° C., the supernatants containing the soluble fraction of the bacterial extracts are recovered and frozen at −80° C.
(§7) The method uses Nitrocefin (OXOID), cephalosporin chromogene as substrate, of which the product hydrolyzed by the B-lactamases is red and absorbs at 485 nm. Beta-lactamase activity is determined kinetically by measurement of the absorbance variation at 485 nm resulting from the hydrolysis of the substrate using a plate spectrophotometer (Spectra Max More Molecular Devices). The experiments are carried out at 37° C. The quantity of enzyme was normalized and the measurements are carried out at initial speed.
(§8) Two measurements were carried out, without preincubation and with preincubation of the enzyme and inhibitor (5 mn), in order to test the irreversibility of the reaction. The products are tested at 6 or 8 concentrations in duplicate. The reaction mixture contains 100 μM of Nitrocefin and 50 mM sodium phosphate buffer pH7.0.
(§9) The hydrolysis speeds are measured with and without inhibitor. The concentration of inhibitor which inhibits by 50% the hydrolysis reaction of Nitrocefin by the enzyme (CI50) is determined. The data is processed using GraFit software (Erathycus Software).

Another test deals with E. coli 250BE1 (SHV4). The test is described as follows: MIC, micro-dilution in liquid medium, β-lactamine with product at 5 mg/l. Format: cell-based. To be noted: 24 hours at 37° C.; for MIC: Escherichia coli. Here is the method: as §1, §2, §3
(Dilution methods test growth across graded concentrations, often in twofold steps.)

The subject of test [1] is S. aureus 011GO66 (PeniR). The description is as above. Format: cell-based. Conditions: 24 hours at 37° C.; for MIC: Staphylococcus aureus. Here is the method:
as §1, §2, §3

Test [2] concerns E. cloacae 293HT6 (Class C). The description is as above. The test is classed as cell-based. To be noted: 24 hours at 37° C.; for MIC: Enterobacter cloacae. Here is the method: as §1, §2, §3
A further test deals with E. coli 250HT21 (Tem1). Described as above. The test is classed as cell-based. Conditions: 24 hours at 37° C.; for MIC: Escherichia coli. The protocol:
as §1, §2, §3

A further test concerns E. coli 250HT22 (Tem2). The description is as above. The test is classed as cell-based. Conditions: 24 hours at 37° C.; for MIC: Escherichia coli. Here is the method: as §1, §2, §3
For a further test, the system named is E. coli 250SJ1 (Tem7). The test is described as above. Format: cell-based. Conditions: 24 hours at 37° C.; for MIC: Escherichia coli. The protocol:
as §1, §2, §3

The test system of a further test is E. coli 250HT26 (SHV1). The test is described as above. Format: cell-based. To be noted: 24 hours at 37° C.; for MIC: Escherichia coli. Here is the method: as §1, §2, §3
Test [3] has as its system E. coli 250HT23 (Class D). The test is described as above. Format: cell-based. To be noted: 24 hours at 37° C.; for MIC: Escherichia coli. The protocol: as §1, §2, §3
The target in the next test is T2, β-lactamase P99 (Enterobacter cloacae, UniProt P05364).
T2 construct: The β-lactamases are isolated from bacterial strains which are resistant to penicillins and cephalosporins; endogenous in cells; host or cells: Enterobacter cloacae 293HT6 (natural producer; French-press lysate, 100,000 g supernatant)
T2 sequence (P05364 21-381): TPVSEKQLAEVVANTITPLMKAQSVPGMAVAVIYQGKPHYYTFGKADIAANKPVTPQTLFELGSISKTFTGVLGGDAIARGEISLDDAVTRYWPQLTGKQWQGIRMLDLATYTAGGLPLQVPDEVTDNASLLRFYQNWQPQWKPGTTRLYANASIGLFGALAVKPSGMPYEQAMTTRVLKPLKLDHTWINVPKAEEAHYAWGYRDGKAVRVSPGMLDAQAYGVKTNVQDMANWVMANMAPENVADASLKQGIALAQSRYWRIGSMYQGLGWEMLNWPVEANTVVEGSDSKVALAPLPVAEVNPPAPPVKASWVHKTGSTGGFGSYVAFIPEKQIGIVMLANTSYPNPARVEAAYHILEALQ
In words: biochemical. To be noted: 100 μM Nitrocefin, 50 mM sodium phosphate buffer pH7.0, 37° C.; read-out: IC50 nM/P99. Here is the method:
as §4, §5, §6, §7, §8, §9

For test [4], the system named is P. aeruginosa 391HT7 (PSE). In words: MIC, micro-dilution in liquid medium, β-lactamine with product at 5 mg/l. Format: cell-based. Conditions: Pseudomonas aeruginosa, 24 hours at 37° C. The protocol: as §1, §2, §3
For another test, the system named is Serratia 301HT6. The test is described as above. Format: cell-based. To be noted: Trial 10, 301HT6 Serratia, 24 hours at 37° C. Here is the method:
as §1, §2, §3

Test [5] relates to P. aeruginosa 391HT8 (PSE). The test is described as above. Conditions: Pseudomonas aeruginosa, 24 hours at 37° C. Format: cell-based. Here is the method: as §1, §2, §3

Where two headings read alike, the source gives them in different places. A value given as a limit tells only on which side of the number the result lay.

T1 sequence (P62593 24-286 limits assumed): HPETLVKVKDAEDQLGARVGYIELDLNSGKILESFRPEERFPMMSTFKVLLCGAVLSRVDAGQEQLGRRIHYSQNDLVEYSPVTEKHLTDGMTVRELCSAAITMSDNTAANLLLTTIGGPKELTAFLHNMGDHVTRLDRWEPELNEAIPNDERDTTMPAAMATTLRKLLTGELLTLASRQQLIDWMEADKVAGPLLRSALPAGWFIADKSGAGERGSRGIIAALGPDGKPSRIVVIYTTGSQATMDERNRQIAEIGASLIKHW

In the case of `O=C(OCCc1ccncc1)[C@H]1CC[C@@H]2CN1C(=O)N2OS(=O)(=O)[O-].[Na+]` (relative stereo) [Example 49, sodium salt of trans 2-(4-pyridinyl)ethyl 7-oxo-6-(sulphooxy)-1,6-diazabicyclo[3.2.1]octane-2-carboxylate], the “MIC of Cefotaxime in combination with the compound” value is 0.08 µg/mL with E. coli 250CF1 (Tem3) (compound at 5 mg/l, Trial 4, 250CF1 E. coli Tem3); “<=0.04 μg/ml” with E. coli 250BE1 (SHV4) (compound at 5 mg/l, Trial 7, 250BE1 E. coli SHV4); 2.5 µg/mL in test [1] (compound at 5 mg/l, Trial 1, 011GO66 S. aureus PeniR); “<=0.04 μg/ml” with E. coli 250HT21 (Tem1) (compound at 5 mg/l, Trial 2, 250HT21 E. coli Tem1); “<=0.04 μg/ml” with E. coli 250HT22 (Tem2) (compound at 5 mg/l, Trial 3, 250HT22 E. coli Tem2); “<=0.04 μg/ml” with E. coli 250SJ1 (Tem7) (compound at 5 mg/l, Trial 5, 250SJ1 E. coli Tem7). Besides, the “MIC of Cefotaxime in combination with the compound” value was “<=0.04 μg/ml” with E. coli 250HT26 (SHV1) (compound at 5 mg/l, Trial 6, 250HT26 E. coli SHV1) and “<=0.04 μg/ml” in [3] (compound at 5 mg/l, Trial 8, 250HT23 E. coli Class D). Further, the “MIC of Piperacillin in combination with the compound” value in the test with E. coli 250CF1 (Tem3) (compound at 5 mg/l, Trial 4, 250CF1 Tem3) amounted to 1.2 µg/mL; with E. coli 250BE1 (SHV4) (compound at 5 mg/l, Trial 7, 250BE1 SHV4), 20 µg/mL; in test [1] (compound at 5 mg/l, Trial 1, 011GO66 peniR), 1.2 µg/mL; in test [2] (compound at 5 mg/l, Trial 9, 293HT6 Class) it was 10 µg/mL; in the test on E. coli 250HT21 (Tem1) (compound at 5 mg/l, Trial 2, 250HT21 Tem1) it was 1.2 µg/mL; in the test on E. coli 250HT22 (Tem2) (compound at 5 mg/l, Trial 3, 250HT22 Tem2) it was 2.5 µg/mL. The “MIC of Piperacillin in combination with the compound” value in the test on E. coli 250SJ1 (Tem7) (compound at 5 mg/l, Trial 5, 250SJ1 Tem7) came out at 5 µg/mL; with E. coli 250HT26 (SHV1) (compound at 5 mg/l, Trial 6, 250HT26 SHV1), 20 µg/mL; in test [3] (compound at 5 mg/l, Trial 8, 250HT23 Class D) it was 10 µg/mL. The IC50 at β-lactamase TEM1 was determined as 8.2 nM; on β-lactamase P99, 98 nM.

Take `CO/N=C(\C(=O)N[C@@H]1C(=O)N2C(C(=O)O)=C(COC(C)=O)CS[C@H]12)c1csc(N)n1` [Cefotaxime, cefotaxime, reference compound]: the MIC in the test on E. coli 250CF1 (Tem3) (Trial 4, 250CF1 E. coli Tem3, read-out: MIC of Cefotaxime alone) was greater than 40 µg/mL; in the test on E. coli 250BE1 (SHV4) (Trial 7, 250BE1 E. coli SHV4, read-out: MIC of Cefotaxime alone), 40 µg/mL; in [1] (Trial 1, 011GO66 S. aureus PeniR, read-out: MIC of Cefotaxime alone) it was 1.2 µg/mL; in test [4] (Trial 11, 391HT7 P. aeruginosa PSE, read-out: MIC of Cefotaxime alone), 40 µg/mL; in [2] (Trial 9, 293HT6 E. cloacae Class C, read-out: MIC of Cefotaxime alone), greater than 40 µg/mL; in the test with E. coli 250HT21 (Tem1) (Trial 2, 250HT21 E. coli Tem1, read-out: MIC of Cefotaxime alone), no more than 0.04 µg/mL. In addition, the MIC is no more than 0.04 µg/mL with E. coli 250HT22 (Tem2) (Trial 3, 250HT22 E. coli Tem2, read-out: MIC of Cefotaxime alone); 0.08 µg/mL in the test with E. coli 250SJ1 (Tem7) (Trial 5, 250SJ1 E. coli Tem7, read-out: MIC of Cefotaxime alone); 0.6 µg/mL in the test on E. coli 250HT26 (SHV1) (Trial 6, 250HT26 E. coli SHV1, read-out: MIC of Cefotaxime alone); 0.3 µg/mL with Serratia 301HT6 (read-out: MIC of Cefotaxime alone); 40 µg/mL in test [5] (Trial 12, 391HT8 P. aeruginosa PSE, read-out: MIC of Cefotaxime alone); 0.08 µg/mL in [3] (Trial 8, 250HT23 E. coli Class D, read-out: MIC of Cefotaxime alone).

As for `CCN1CCN(C(=O)N[C@@H](C(=O)N[C@@H]2C(=O)N3[C@@H]2SC(C)(C)[C@@H]3C(=O)O)c2ccccc2)C(=O)C1=O` [Piperacillin, piperacillin, reference compound], the MIC in the test on E. coli 250CF1 (Tem3) (Trial 4, 250CF1 Tem3, read-out: MIC of Piperacillin alone) is greater than 40 µg/mL; in the test with E. coli 250BE1 (SHV4) (Trial 7, 250BE1 SHV4, read-out: MIC of Piperacillin alone), greater than 40 µg/mL; in [1] (Trial 1, 011GO66 peniR, read-out: MIC of Piperacillin alone) it was 10 µg/mL; in [4] (Trial 11, 391HT7 PSE, read-out: MIC of Piperacillin alone) it was greater than 40 µg/mL; in test [2] (Trial 9, 293HT6 Class, read-out: MIC of Piperacillin alone), greater than 40 µg/mL; in the test on E. coli 250HT21 (Tem1) (Trial 2, 250HT21 Tem1, read-out: MIC of Piperacillin alone) it was greater than 40 µg/mL. The MIC was greater than 40 µg/mL in the test on E. coli 250HT22 (Tem2) (Trial 3, 250HT22 Tem2, read-out: MIC of Piperacillin alone); greater than 40 µg/mL in the test on E. coli 250SJ1 (Tem7) (Trial 5, 250SJ1 Tem7, read-out: MIC of Piperacillin alone); greater than 40 µg/mL in the test with E. coli 250HT26 (SHV1) (Trial 6, 250HT26 SHV1, read-out: MIC of Piperacillin alone); 5 µg/mL in the test on Serratia 301HT6 (read-out: MIC of Piperacillin alone); greater than 40 µg/mL in test [5] (Trial 12, 391HT8 PSE, read-out: MIC of Piperacillin alone); greater than 40 µg/mL in [3] (Trial 8, 250HT23 Class D, read-out: MIC of Piperacillin alone).
